Reference: the NIST ThermoML archive (doi:10.1021/acs.jced.8b00157)
Where “and” joins values, the source holds several entries; their conditions need not be identical. Equal values may be shown once. ± gives the expanded uncertainty stated by the source.

Test: an = ratio of the nth substance listed
Details: 100 kPa, Liquid, Buoyancy - hydrostatic balance

With `[F][Al]([F])[F]` [aluminum fluoride] + [F-].[K+] the mass density (1123.5 K, a2 = 1.5) was 1749 ± 10 kg/m3, the mass density (1124 K, a2 = 1.5) was 1748 ± 10 kg/m3 and the mass density (1124.4 K, a2 = 1.5) was 1748 ± 10 kg/m3. It also gave a mass density (1124.9 K, a2 = 1.5) of 1747 ± 10 kg/m3, a mass density (1125.1 K, a2 = 1.5) of 1747 ± 10 kg/m3 and a mass density (1125.7 K, a2 = 1.5) of 1747 ± 10 kg/m3. For the same compound, the mass density (1126.2 K, a2 = 1.5) was 1747 ± 10 kg/m3, the mass density (1126.6 K, a2 = 1.5) was 1746 ± 10 kg/m3 and the mass density (1127 K, a2 = 1.5) was 1746 ± 10 kg/m3. For the same compound, the mass density (1127.4 K, a2 = 1.5) was 1746 ± 10 kg/m3, the mass density (1127.8 K, a2 = 1.5) was 1745 ± 10 kg/m3 and the mass density (1128.2 K, a2 = 1.5) was 1745 ± 10 kg/m3. The mass density (1128.6 K, a2 = 1.5) was 1745 ± 10 kg/m3, the mass density (1128.9 K, a2 = 1.5) was 1745 ± 10 kg/m3 and the mass density (1129.6 K, a2 = 1.5) was 1744 ± 10 kg/m3. For the same compound, the mass density (1129.8 K, a2 = 1.5) was 1744 ± 10 kg/m3, the mass density (1130.3 K, a2 = 1.5) was 1743 ± 10 kg/m3 and the mass density (1130.8 K, a2 = 1.5) was 1743 ± 10 kg/m3. It also gave a mass density (1131 K, a2 = 1.5) of 1743 ± 10 kg/m3, a mass density (1131.5 K, a2 = 1.5) of 1742 ± 10 kg/m3 and a mass density (1132 K, a2 = 1.5) of 1742 ± 10 kg/m3. It also gave a mass density (1132.3 K, a2 = 1.5) of 1742 ± 10 kg/m3, a mass density (1132.7 K, a2 = 1.5) of 1742 ± 10 kg/m3 and a mass density (1133.2 K, a2 = 1.5) of 1741 ± 10 kg/m3. The mass density (1133.6 K, a2 = 1.5) was 1741 ± 10 kg/m3, the mass density (1134 K, a2 = 1.5) was 1741 ± 10 kg/m3 and the mass density (1134.3 K, a2 = 1.5) was 1740 ± 10 kg/m3. It also gave a mass density (1134.8 K, a2 = 1.5) of 1740 ± 10 kg/m3, a mass density (1135.2 K, a2 = 1.5) of 1740 ± 10 kg/m3 and a mass density (1135.6 K, a2 = 1.5) of 1739 ± 11 kg/m3. It also gave a mass density (1136.1 K, a2 = 1.5) of 1739 ± 10 kg/m3, a mass density (1163.2 K, a2 = 1.7) of 1864 ± 10 kg/m3 and a mass density (1163.3 K, a2 = 1.7) of 1864 ± 11 kg/m3. The mass density (1163.4 K, a2 = 1.7) was 1864 ± 11 kg/m3, the mass density (1163.6 K, a2 = 1.7) was 1863 ± 10 kg/m3 and the mass density (1164.4 K, a2 = 1.7) was 1863 ± 11 kg/m3. For the same compound, the mass density (1165 K, a2 = 1.7) was 1864 ± 11 kg/m3, the mass density (1165.1 K, a2 = 1.7) was 1863 ± 11 kg/m3 and the mass density (1165.3 K, a2 = 1.7) was 1862 ± 11 kg/m3 and 1863 ± 11 kg/m3. It also gave a mass density (1165.4 K, a2 = 1.7) of 1863 ± 11 kg/m3, a mass density (1166.1 K, a2 = 1.7) of 1861 ± 11 kg/m3 and a mass density (1166.2 K, a2 = 1.7) of 1861 ± 11 kg/m3. It also gave a mass density (1166.4 K, a2 = 1.7) of 1862 ± 11 kg/m3, a mass density (1166.6 K, a2 = 1.7) of 1862 ± 11 kg/m3 and a mass density (1166.8 K, a2 = 1.7) of 1861 ± 10 kg/m3. For the same compound, the mass density (1167 K, a2 = 1.7) was 1860 ± 10 kg/m3, the mass density (1167.3 K, a2 = 1.7) was 1860 ± 10 kg/m3 and 1861 ± 10 kg/m3 and the mass density (1167.5 K, a2 = 1.7) was 1860 ± 11 kg/m3. The mass density (1167.6 K, a2 = 1.7) was 1861 ± 11 kg/m3, the mass density (1168.2 K, a2 = 1.7) was 1860 ± 11 kg/m3 and the mass density (1168.6 K, a2 = 1.7) was 1859 ± 10 kg/m3. For the same compound, the mass density (1169.1 K, a2 = 1.7) was 1860 ± 11 kg/m3 and 1859 ± 10 kg/m3, the mass density (1169.2 K, a2 = 1.7) was 1859 ± 10 kg/m3 and the mass density (1169.4 K, a2 = 1.7) was 1858 ± 10 kg/m3. For the same compound, the mass density (1169.6 K, a2 = 1.7) was 1858 ± 10 kg/m3, the mass density (1169.7 K, a2 = 1.7) was 1858 ± 10 kg/m3 and the mass density (1169.8 K, a2 = 1.7) was 1858 ± 10 kg/m3. It also gave a mass density (1170.3 K, a2 = 1.7) of 1857 ± 11 kg/m3, a mass density (1170.5 K, a2 = 1.7) of 1857 ± 11 kg/m3 and a mass density (1170.6 K, a2 = 1.7) of 1857 ± 11 kg/m3. For the same compound, the mass density (1171.1 K, a2 = 1.7) was 1857 ± 11 kg/m3, the mass density (1172 K, a2 = 1.7) was 1856 ± 11 kg/m3 and 1857 ± 11 kg/m3 and the mass density (1172.2 K, a2 = 1.7) was 1855 ± 10 kg/m3. The mass density (1172.7 K, a2 = 1.7) was 1856 ± 11 kg/m3, the mass density (1173.3 K, a2 = 1.7) was 1856 ± 11 kg/m3 and the mass density (1173.8 K, a2 = 1.7) was 1854 ± 11 kg/m3. The mass density (1174 K, a2 = 1.7) was 1855 ± 10 kg/m3, the mass density (1174.1 K, a2 = 1.7) was 1855 ± 11 kg/m3 and 1854 ± 11 kg/m3 and the mass density (1174.5 K, a2 = 1.7) was 1853 ± 10 kg/m3. The mass density (1174.6 K, a2 = 1.7) was 1854 ± 10 kg/m3, the mass density (1174.9 K, a2 = 1.7) was 1855 ± 10 kg/m3 and the mass density (1175.1 K, a2 = 1.7) was 1852 ± 10 kg/m3 and 1854 ± 10 kg/m3. It also gave a mass density (1175.4 K, a2 = 1.7) of 1854 ± 10 kg/m3, a mass density (1175.6 K, a2 = 1.7) of 1854 ± 11 kg/m3 and a mass density (1175.8 K, a2 = 1.7) of 1853 ± 10 kg/m3. For the same compound, the mass density (1175.9 K, a2 = 1.7) was 1852 ± 10 kg/m3, the mass density (1176 K, a2 = 1.7) was 1852 ± 10 kg/m3 and 1853 ± 10 kg/m3 and the mass density (1176.8 K, a2 = 1.7) was 1851 ± 10 kg/m3. It also gave a mass density (1177.3 K, a2 = 1.7) of 1851 ± 10 kg/m3, a mass density (1177.5 K, a2 = 1.7) of 1852 ± 10 kg/m3 and a mass density (1177.8 K, a2 = 1.7) of 1851 ± 10 kg/m3. The mass density (1177.9 K, a2 = 1.7) was 1852 ± 10 kg/m3, the mass density (1178.2 K, a2 = 1.7) was 1851 ± 11 kg/m3 and the mass density (1178.3 K, a2 = 1.7) was 1851 ± 10 kg/m3. The mass density (1178.4 K, a2 = 1.7) was 1850 ± 10 kg/m3, the mass density (1179.5 K, a2 = 1.7) was 1849 ± 11 kg/m3 and the mass density (1179.7 K, a2 = 1.7) was 1849 ± 11 kg/m3. The mass density (1179.8 K, a2 = 1.7) was 1850 ± 10 kg/m3, the mass density (1179.9 K, a2 = 1.7) was 1849 ± 10 kg/m3 and the mass density (1180 K, a2 = 1.7) was 1850 ± 11 kg/m3. The mass density (1180.2 K, a2 = 1.7) was 1848 ± 11 kg/m3, the mass density (1180.4 K, a2 = 1.7) was 1849 ± 10 kg/m3 and the mass density (1180.7 K, a2 = 1.7) was 1849 ± 11 kg/m3. It also gave a mass density (1181 K, a2 = 1.7) of 1848 ± 11 kg/m3, a mass density (1181.4 K, a2 = 1.7) of 1849 ± 10 kg/m3 and a mass density (1181.5 K, a2 = 1.7) of 1848 ± 11 kg/m3. The mass density (1181.8 K, a2 = 1.7) was 1847 ± 11 kg/m3, the mass density (1182.4 K, a2 = 1.7) was 1846 ± 10 kg/m3 and 1847 ± 10 kg/m3 and 1848 ± 10 kg/m3 and the mass density (1182.6 K, a2 = 1.7) was 1847 ± 11 kg/m3. The mass density (1182.7 K, a2 = 1.7) was 1847 ± 11 kg/m3, the mass density (1183.2 K, a2 = 1.7) was 1846 ± 10 kg/m3 and the mass density (1183.6 K, a2 = 1.7) was 1846 ± 11 kg/m3. It also gave a mass density (1183.8 K, a2 = 1.7) of 1846 ± 10 kg/m3, a mass density (1184.2 K, a2 = 1.7) of 1846 ± 10 kg/m3 and a mass density (1184.3 K, a2 = 1.7) of 1845 ± 10 kg/m3. The mass density (1184.6 K, a2 = 1.7) was 1846 ± 10 kg/m3, the mass density (1184.8 K, a2 = 1.7) was 1845 ± 10 kg/m3 and the mass density (1184.9 K, a2 = 1.7) was 1845 ± 10 kg/m3. The mass density (1185.1 K, a2 = 1.7) was 1845 ± 10 kg/m3, the mass density (1185.4 K, a2 = 1.7) was 1844 ± 10 kg/m3 and the mass density (1185.7 K, a2 = 1.7) was 1844 ± 10 kg/m3. It also gave a mass density (1186.3 K, a2 = 1.7) of 1843 ± 10 kg/m3, a mass density (1186.4 K, a2 = 1.7) of 1844 ± 11 kg/m3 and a mass density (1186.5 K, a2 = 1.7) of 1844 ± 10 kg/m3. The mass density (1186.8 K, a2 = 1.7) was 1843 ± 10 kg/m3, the mass density (1186.9 K, a2 = 1.7) was 1843 ± 10 kg/m3 and the mass density (1187.8 K, a2 = 1.7) was 1843 ± 10 kg/m3 and 1842 ± 11 kg/m3 and 1842 ± 10 kg/m3. The mass density (1188.1 K, a2 = 1.7) was 1842 ± 10 kg/m3.
